In article PMC4766415 (Nature Communications, 2016):
Read-outs that look alike come from different tables or passages of the source.

How the values were obtained:
TTR [1] = target: TTR; design: method as in PMID 14968122; conditions: cited from earlier work
FAP = tested on: FAP; design: method as in PMID 24368466; conditions: patients with FAP, 2 years treatment; cited from earlier work
[2] = design: method as in PMID 17107884; conditions: cited from earlier work
[3] = design: method as in Vyndaqel European Public Assessment Report (EMA/815723/2011); conditions: single dose of 120 mg; ref Vyndaqel European Public Assessment Report (EMA/815723/2011); cited from earlier work
[4] = tested on: T1, TTR in human plasma (WT-TTR and V30M-TTR); test: [125I]T4 competition in human plasma, native gel electrophoresis; assay type: binding; conditions: 1 mM; plasma from normal (WT-TTR) and V30M-TTR FAP patient; 1 h RT
T1 construct: human plasma from a normal (WT-TTR) and from an FAP patient carrying the V30M-TTR mutation; from tissue; host or cells: human plasma of normal donors and of V30M-TTR carriers
Text: Error bars indicate s.e.m. (n=3). […] Error bars indicate s.e.m. (n=3).

[5] = tested on: Rat Schwannoma cells (RN22); test: Caspase-3 activation by Y78F-TTR oligomers in RN22 cells; conditions: Y78F-TTR aggregates 2 μM formed with 20 μM compound; 24 h exposure
V122I-TTR = target: V122I-TTR; design: method as in PMID 23716704; conditions: subunit exchange assays; cited from earlier work
AC16 cells = test: TTR-induced cytotoxicity in AC16 cells, resazurin reduction assay; assay type: cell-based, human; conditions: 16 μM compound, 8 μM TTR; 24 h
Text: Error bars indicate s.e.m. […] Error bars indicate s.e.m. (n=4). […] Error bars indicate s.e.m. (n=3).

[6] = tested on: WT and V30M-TTR tetramers in plasma; test: TTR tetramer stability in human plasma by IEF under semi-denaturing conditions; assay type: biochemical; conditions: 1.4 mM, overnight 4 °C, 4 M urea
L55P-TTR = tested on: T2, L55P-TTR; test: Dot-blot filter assay of L55P-TTR aggregation secreted by RN22 cells; assay type: cell-based, human; conditions: 1 μM in the medium
T2 construct: TTR is composed of four identical 127 amino-acid residue β-sheet-rich subunits; expressed in transfected cells; host or cells: rat Schwannoma RN22 cells, metallothionein promoter, ZnSO4 induction
Procedure: The extent of extracellular L55P-TTR aggregation was monitored by a filter trap assay followed by TTR immunodetection.
The rat Schwannoma cell line RN22 stably co-transfected with TTR L55P cDNA under the control of the metallothionein promoter was used to test the inhibitors of TTR aggregation as in ref. [51]. […] TTR in the medium was quantified by ELISA, and the volume of medium corresponding to 500 ng of TTR was applied on to a 0.2-μm pore cellulose acetate membrane filter (Schleicher and Schuell) using a manifold system (Gibco BRL) to separate soluble proteins from aggregates. […] Detection was performed with ECL (GE Healthcare). Dot blot quantification was performed using the ImageQuant program. The percentage of aggregation inhibition was calculated as 100 × ((Control—Treated)/Control). Experiments were repeated three times in triplicate.

TTR [7] = tested on: TTR; design: method as in Vyndaqel European Public Assessment Report (EMA/815723/2011); conditions: single dose of 120 mg; ref Vyndaqel European Public Assessment Report (EMA/815723/2011); cited from earlier work
Y78F-TTR = Y78F-TTR (Homo sapiens, UniProt P02766, Y98F); test: Y78F-TTR aggregation inhibition, turbidity at 340 nm, pH 4.2

Compound | Kd (TTR [1]; read-out: Kd1) | Kd (TTR [1]; read-out: Kd2) | effect on progression of neurological impairment (FAP) | concentration in serum after oral administration [2] | average concentration in plasma at Tmax [3] | radioactive T4-TTR band in the presence of compound [4] | reduction in Caspase-3 activation [5] | Kd2 estimate (V122I-TTR) | effect on WT-TTR and V122I-TTR induced reduction in cell viability (AC16 cells) | TTR tetramer stabilization in plasma [6] | reduction of L55P-TTR aggregation compared with untreated cells (L55P-TTR) | average percent stabilization of TTR (TTR [7]) | RA (%): percent reduction of TTR aggregation rate at high inhibitor concentration (Y78F-TTR)
O=C(O)c1cc(-c2ccc(F)cc2F)ccc1O [diflunisal] | 75 nM | 1100 nM | reduced the rate of progression of neurological impairment | > 140 µM | – | – | – | – | – | – | – | – | –
O=C(O)c1ccc2nc(-c3cc(Cl)cc(Cl)c3)oc2c1 [tafamidis] | – | – | – | – | 14.4 µM | no longer visible | 11.6%±4.0 | in the μM range | rescued this toxic effect | stabilized WT and V30M-TTR tetramers in plasma | ~90% | 189% | 59.57%
